These results are taken from patent US9227971B2, “Pyrazolo[1,5-a]pyrimidine compounds as mTOR inhibitors” (Merck Sharp & Dohme Corp., priority 2010, dated 2016).

Assay [1] relates to phosphorylated AKT Ser473 (pAKT S473), mTORC2 activity, PC3 cells. Description: mTOR target engagement assay, immunofluorescent cell-based, pAKT S473 readout (mTORC2 activity). The procedure, abridged: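 After blocking, cells were stained overnight at 4 °C with anti-pAKT S473 antibody, then a fluorescent secondary; inhibition was read as reduced fluorescence intensity.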
Assay [2] concerns phosphorylated 4E-BP1 Thr37/46 (p4E-BP1 Thr37/46), mTORC1 activity, PC3 cells. Description: mTOR target engagement assay, immunofluorescent cell-based, p4E-BP1 Thr37/46 readout (mTORC1 activity). Conditions: read-out: p4E-BP1 Thr37/46 IC50. The method, boiled down:
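Cell-based immunofluorescence in PC3 cells: serially diluted compounds (0.25% DMSO, 5% FBS) applied for ninety minutes at 37° C before fixation and overnight 4° C staining of p4E-BP1 Thr37/46. Untreated DMSO wells set maximal phosphorylation; IC50 obtained by logistic fitting.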

The mark [3] stands for this setting: Homo sapiens, PC-3, Table 7-8, PC3 cells.
The mark [4] stands for this setting: Homo sapiens, PC-3, PC3 cells, compound treatment ninety minutes at 37° C.
Where [5] appears, read: Homo sapiens, PC-3, Table 6-1, PC3 cells.
Where [6] appears, read: Homo sapiens, PC-3, Table 3-1, PC3 cells.

Read-outs that look alike come from different tables or passages of the source.

Turning to `CS(=O)(=O)c1c([C@@H]2C[C@H]3CC[C@@H](C2)N3C(=O)c2nnc[nH]2)nc2c(-c3ccc(C4(O)COC4)nc3)cnn2c1N` [Compound 7.48, ((1R,3s,5S)-3-(7-amino-3-(6-(3-hydroxyoxetan-3-yl)pyridin-3-yl)-6-(methylsulfonyl)pyrazolo [1,5-a]pyrimidin-5-yl)-8-azabicyclo[3.2.1]octan-8-yl)(4H-1,2,4-triazol-3-yl)methanone], the IC50 in assay [1] (setting [3]) and in assay [2] (setting [3]) was 1000 to 10000 nM throughout.

As for `CC(=O)c1c([C@@H]2C[C@H]3CC[C@@H](C2)N3C(=O)c2nnc[nH]2)nc2c(-c3ccc(-n4cc(C)cn4)nc3)cnn2c1N` [Compound 1.1.135, 1-(5-((1R,3s,5S)-8-(4H-1,2,4-triazole-3-carbonyl)-8-azabicyclo[3.2.1]octan-3-yl)-7-amino-3-(6-(4-methyl-1H-pyrazol-1-yl)pyridin-3-yl)pyrazolo[1,5-a]pyrimidin-6-yl)ethanone], the IC50 in assay [1] (setting [4]) and in assay [2] (setting [4]) was 1 to 100 nM in each case.

For the molecule `CC(=O)c1c([C@@H]2C[C@H]3CC[C@@H](C2)N3C(=O)c2ncn[nH]2)nc2c(-c3ccc(C(C)(C)O)nc3)cnn2c1N` [Compound 7.5, 1-(5-((1R,3s,5S)-8-(1H-1,2,4-triazole-5-carbonyl)-8-azabicyclo[3.2.1]octan-3-yl)-7-amino-3-(6-(2-hydroxypropan-2-yl)pyridin-3-yl)pyrazolo[1,5-a]pyrimidin-6-yl)ethanone], the IC50 in assay [1] (setting [4]) and in assay [2] (setting [4]) was 1 to 100 nM throughout.

On to `CC(=O)c1c([C@@H]2C[C@H]3CC[C@@H](C2)N3C(=O)CO)nc2c(-c3ccc(-c4ncc(C)[nH]4)nc3)cnn2c1N` [Compound 6.26, 1-((1R,3s,5S)-3-(6-acetyl-7-amino-3-(6-(5-methyl-1H-imidazol-2-yl)pyridin-3-yl)pyrazolo[1,5-a]pyrimidin-5-yl)-8-azabicyclo[3.2.1]octan-8-yl)-2-hydroxyethanone], for which the IC50 in assay [1] (setting [5]) and in assay [2] (setting [5]) was 1 to 100 nM each time.

In the case of `Cn1nnc(-c2ccc(-c3cnn4c(N)c(S(C)(=O)=O)c([C@@H]5C[C@H]6CC[C@@H](C5)N6C(=O)c5nnc[nH]5)nc34)cn2)n1` [Compound 3.42, ((1R,3a,5S)-3-(7-amino-3-(6-(2-methyl-2H-tetrazol-5-yl)pyridin-3-yl)-6-(methylsulfonyl)pyrazolo[1,5-a]pyrimidin-5-yl)-8-azabicyclo[3.2.1]octan-8-yl)(4H-1,2,4-triazol-3-yl)methanone], the IC50 in assay [1] (setting [6]) was in the range of 100 to 1000 nM; in assay [2] (setting [6]), 1000 to 10000 nM.

`NC(=O)N1[C@@H]2CC[C@H]1C[C@H](c1nc3c(-c4ccc(-c5ccccc5)nc4)cnn3c(N)c1C1CC1)C2` [Compound 4.6, (1R,3s,5S)-3-(7-amino-6-cyclopropyl-3-(6-phenylpyridin-3-yl)pyrazolo[1,5a]pyrimidin-5-yl)-8-azabicyclo[3.2.1]octane-8-carboxamide]: the IC50 in assay [1] (setting [4]) and in assay [2] (setting [4]) was 1 to 100 nM in each case.

As for `CC(=O)c1c([C@@H]2C[C@H]3CC[C@@H](C2)N3C(=O)c2nnc(N)[nH]2)nc2c(-c3ccc(-c4ncc[nH]4)nc3)cnn2c1N` [Compound 6.20, 1-(3-(6-(1H-imidazol-2-yl)pyridin-3-yl)-7-amino-5-((1R,3s,5S)-8-(5-amino-4H-1,2,4-triazole-3-carbonyl)-8-azabicyclo[3.2.1]octan-3-yl)pyrazolo[1,5-a]pyrimidin-6-yl)ethanone], the IC50 in assay [1] (setting [5]) and in assay [2] (setting [5]) was 1 to 100 nM each time.

As to `N#Cc1ncc(-c2cnn3c(N)c(C4CC4)c([C@@H]4C[C@H]5CC[C@@H](C4)N5C(=O)c4nnc[nH]4)nc23)cn1` [Compound 8.96, 5-(5-((1R,3s,5S)-8-(4H-1,2,4-triazole-3-carbonyl)-8-azabicyclo[3.2.1]octan-3-yl)-7-amino-6-cyclopropylpyrazolo[1,5-a]pyrimidin-3-yl)pyrimidine-2-carbonitrile], the IC50 in assay [1] (Homo sapiens, PC-3, PC3 cells) lay within 1000 to 10000 nM; in assay [2] (Homo sapiens, PC-3, PC3 cells), 1000 to 10000 nM.

Turning to `CC(=O)c1c([C@@H]2C[C@H]3CC[C@@H](C2)N3C(=O)CO)nc2c(-c3ccc(-c4ccccc4F)nc3)cnn2c1N` [Compound 1.1.172, 1-((1R,3s,5S)-3-(6-acetyl-7-amino-3-(6-(2-fluorophenyl)pyridin-3-yl)pyrazolo[1,5-a]pyrimidin-5-yl)-8-azabicyclo[3.2.1]octan-8-yl)-2-hydroxyethanone], the IC50 in assay [1] (setting [4]) and in assay [2] (setting [4]) was 1 to 100 nM throughout.

`CC(=O)c1c([C@@H]2C[C@H]3CC[C@@H](C2)N3C(=O)CO)nc2c(-c3ccc(-c4ncc[nH]4)nc3)cnn2c1N` [Compound 6.3, 1-((1R,3s,5S)-3-(3-(6-(1H-imidazol-2-yl)pyridin-3-yl)-6-acetyl-7-aminopyrazolo[1,5-a]pyrimidin-5-yl)-8-azabicyclo[3.2.1]octan-8-yl)-2-hydroxyethanone]: the IC50 in assay [1] (setting [5]) and in assay [2] (setting [5]) was 1 to 100 nM in each case.

As for `CS(=O)(=O)c1c([C@H]2CC3CC[C@H](C2)N3C(=O)c2nnc[nH]2)nc2c(-c3ccc(C4CCCCC4)nc3)cnn2c1N` [Compound 3.165, ((1R,3s,5S)-3-(7-amino-3-(6-cyclohexylpyridin-3-yl)-6-(methylsulfonyl)pyrazolo[1,5-a]pyrimidin-5-yl)-8-azabicyclo[3.2.1]octan-8-yl)(4H-1,2,4-triazol-3-yl)methanone], the IC50 in assay [1] (setting [6]) and in assay [2] (setting [6]) was 100 to 1000 nM each time.

With `CC(=O)c1c([C@@H]2C[C@H]3CC[C@@H](C2)N3C(=O)c2nc[nH]n2)nc2c(-c3ccc(-c4ncc(C(F)F)s4)nc3)cnn2c1N` [Compound 1.1.26, 1-(5-((1R,3s,5S)-8-(1H-1,2,4-triazole-3-carbonyl)-8-azabicyclo[3.2.1]octan-3-yl)-7-amino-3-(6-(5-(difluoromethyl)thiazol-2-yl)pyridin-3-yl)pyrazolo[1,5-a]pyrimidin-6-yl)ethanone], the IC50 in assay [1] (setting [4]) and in assay [2] (setting [4]) was 100 to 1000 nM each time.

Consider `CC(C)(O)c1ncc(-c2cnn3c(N)c(S(C)(=O)=O)c([C@@H]4C[C@H]5CC[C@@H](C4)N5C(=O)c4nnc[nH]4)nc23)cn1` [Compound 3.152, ((1R,3s,5S)-3-(7-amino-3-(2-(2-hydroxypropan-2-yl)pyimidin-5-yl)-6-(methylsulfonyl)pyrazolo[1,5-a]pyrimidin-5-yl)-8-azabicyclo[3.2.1]octan-8-yl)(4H-1,2,4-triazol-3-yl)methanone], for which the IC50 in assay [1] (setting [6]) and in assay [2] (setting [6]) was 1000 to 10000 nM each time.

In the case of `CCC(O)c1ccc(-c2cnn3c(N)c(C(C)=O)c([C@@H]4C[C@H]5CC[C@@H](C4)N5C(=O)c4nnc[nH]4)nc23)cn1` (stereo partly drawn) [Compound 7.3], the IC50 was in the range of 1 to 100 nM in assay [1] (setting [4]) and 100 to 1000 nM in assay [2] (setting [4]).

With `CS(=O)(=O)c1c(C2CC3COCC(C2)N3C(=O)c2nc[nH]n2)nc2c(-c3ccc(-c4ccccc4)nc3)cnn2c1N` (single isomer, unassigned) [Compound 8.30, (7-(7-amino-6-(methylsulfonyl)-3-(6-phenylpyridin-3-yl)pyrazolo[1,5-a]pyrimidin-5-yl)-3-oxa-9-azabicyclo[3.3.1]nonan-9-yl)(1H-1,2,4-triazol-3-yl)methanone], the IC50 in assay [1] (PC3 cells) and in assay [2] (PC3 cells) was 1 to 100 nM each time.
